This passage reports Activity, CC50 and EC50 results from ChEMBL document CHEMBL1158219, “Cell-based screen for identification of inhibitors of tubulin polymerization” (J Nat Prod, 1996).

Activity calls are given as the source filed them. The calls are words filed in the database; no cut-off is given here. *1 amine or outer side, *2 acyl side, *3 side chain or, on linkers, in order; H or OH if unused. Where a SMILES comes first, the peptide text is derived from it. Bridges are numbered along the chain shown (N, C = ends). Roman numbers before positions name the chains, in order. [ ]: non-standard residue; d: D form. Actinocin(9to1) = Cc1c2oc3c(C)ccc(C(=O)[*:1])c3nc-2c(C(=O)[*:2])c(N)c1=O; NMeV = CN[C@H](C(=O)O)C(C)C; Sar = CNCC(=O)O

Test [1] deals with C6. Nature of the test: Cytotoxicity against rat C6 cells at 50 ug/mL to 2.5 mg/mL after 3 days treated 4 hrs before db-cAMP challenge by MTT assay. The class given is functional, cell-based.
The test system of test [2] is C6. Put plainly: Inhibition of tubulin polymerization in rat C6 cells at 50 ug/mL to 2.5 mg/mL after 4 hrs. The class given is cell-based.
Test [3] has as its system C6. Nature of the test: Cytotoxicity against rat C6 cells assessed as cell release at 50 ug/mL to 2.5 mg/mL after 5 hrs by MTT assay in absence of db-cAMP. The class given is functional, cell-based.
Test [4] has as its system C6. Put plainly: Cytotoxicity against rat C6 cells after 3 days treated 4 hrs before db-cAMP challenge by MTT assay. The class given is functional. As to conditions: read-out: LC50 (the source's name).
Test [5] can be described thus: Inhibition of tubulin polymerization in rat C6 cells after 4 hrs. The class given is cell-based.

For `CN(N=O)C(=O)N[C@@H](C=O)[C@@H](O)[C@H](O)[C@H](O)CO`, the result in test [1], in test [2] and in test [3] was inactive.
Take `CC[C@]1(O)C[C@@H]2CN(CCc3c([nH]c4ccccc34)[C@@](C(=O)OC)(c3cc4c(cc3OC)N(C)[C@H]3[C@@](O)(C(=O)OC)[C@H](OC(C)=O)[C@]5(CC)C=CCN6CC[C@]43[C@@H]65)C2)C1` [VINBLASTINE]: in test [4], the CC50 came out at 66 nM. The same compound came in with an EC50 in test [5] of 8200 nM. Further, the result in test [3] was inactive.
Taken in the same sequence, the figures for `C=CC[C@@H](CC/C(C)=C/C=C/CC/C=C\[C@@H]1CSC([C@@H]2C[C@@H]2C)=N1)OC` [CURACIN A] were 11 nM, 510 nM and “inactive”.
With `COc1cccc2c1C(=O)c1c(O)c3c(c(O)c1C2=O)C[C@@](O)(C(C)=O)C[C@@H]3O[C@H]1C[C@H](N)[C@H](O)[C@H](C)O1`, the outcome in test [1], in test [2] and in test [3] was inactive.
With `O=C1c2c(O)ccc(O)c2C(=O)c2c(NCCNCCO)ccc(NCCNCCO)c21`, the result in test [1], in test [2] and in test [3] was inactive.
As for `CO[C@@]12[C@H](COC(N)=O)C3=C(C(=O)C(C)=C(N)C3=O)N1C[C@@H]1N[C@@H]12`, the result in test [1], in test [2] and in test [3] was inactive.
`O=NN(CCCl)C(=O)NCCCl`: the outcome in test [1], in test [2] and in test [3] was inactive.
Turning to `CC(=O)O[C@H]1C(=O)[C@@]2(C)[C@H]([C@H](OC(=O)c3ccccc3)[C@]3(O)C[C@H](OC(=O)[C@H](O)[C@@H](NC(=O)c4ccccc4)c4ccccc4)C(C)=C1C3(C)C)[C@]1(OC(C)=O)CO[C@@H]1C[C@@H]2O` [PACLITAXEL], the CC50 in test [4] is 23 nM.
Consider `C=C1[C@@H](C)[C@H]2[C@H](Cc3ccccc3)NC(=O)[C@]23OC(=O)/C=C/[C@H](O)CCC[C@@H](C)C/C=C/[C@H]3[C@@H]1O`, for which the result in test [1], in test [2] and in test [3] was inactive.
As for `COc1cccc2c1C(=O)c1c(O)c3c(c(O)c1C2=O)C[C@@](O)(C(=O)CO)C[C@@H]3O[C@H]1C[C@H](N)[C@H](O)[C@H](C)O1`, the outcome in test [1], in test [2] and in test [3] was inactive.
Regarding `CCn1cc(C(=O)O)c(=O)c2ccc(C)nc21`, the outcome in test [1], in test [2] and in test [3] was inactive.
On to `C[C@@H]1C[C@@H]([C@H](O)CC2CC(=O)NC(=O)C2)C(=O)[C@@H](C)C1`, for which the outcome in test [1], in test [2] and in test [3] was inactive.
Turning to `COc1cc2c(c(OC)c1OC)-c1ccc(OC)c(=O)cc1[C@@H](NC(C)=O)CC2` [COLCHICINE], the CC50 in test [4] came out at 200 nM. In test [5], this compound came in with an EC50 of 100 nM. For the same compound, in test [3], the result was inactive.
Turning to `Cc1c2oc3c(C)ccc(C(=O)N[C@@H]4C(=O)N[C@H](C(C)C)C(=O)N5CCC[C@H]5C(=O)N(C)CC(=O)N(C)[C@@H](C(C)C)C(=O)O[C@@H]4C)c3nc-2c(C(=O)N[C@@H]2C(=O)N[C@H](C(C)C)C(=O)N3CCC[C@H]3C(=O)N(C)CC(=O)N(C)[C@@H](C(C)C)C(=O)O[C@@H]2C)c(N)c1=O` (I: T[dV]P[Sar][NMeV] / II: T[dV]P[Sar][NMeV]; ester I:1-I:C, II:1-II:C; linker I:N-II:N via Actinocin(9to1)), the outcome in test [1], in test [2] and in test [3] was inactive.
`COc1cc([C@@H]2c3cc4c(cc3[C@@H](O[C@@H]3O[C@@H]5CO[C@@H](C)O[C@H]5[C@H](O)[C@H]3O)[C@H]3COC(=O)[C@H]23)OCO4)cc(OC)c1O` [ETOPOSIDE]: the CC50 in test [4] came out at 120 nM. In addition, a half-maximal response in test [5] (EC50) required 680000 nM. Besides, the outcome in test [3] was inactive.
On to `CC[C@]1(O)C[C@H]2CN(CCc3c([nH]c4ccccc34)[C@@](C(=O)OC)(c3cc4c(cc3OC)N(C=O)[C@H]3[C@@](O)(C(=O)OC)[C@H](OC(C)=O)[C@]5(CC)C=CCN6CC[C@]43[C@@H]65)C2)C1` [VINCRISTINE], for which, in test [4], the CC50 is 320 nM. This compound registered an EC50 in test [5] of 6200 nM. For the same compound, the outcome in test [3] was inactive.
`COc1cc([C@@H]2c3cc4c(cc3[C@@H](O[C@@H]3O[C@@H]5CO[C@@H](c6cccs6)O[C@H]5[C@H](O)[C@H]3O)[C@H]3COC(=O)[C@H]23)OCO4)cc(OC)c1O`: the outcome in test [1], in test [2] and in test [3] was inactive.
As to `N[C@@H](Cc1ccc(N(CCCl)CCCl)cc1)C(=O)O`, the outcome in test [1], in test [2] and in test [3] was inactive.
Take `CO[C@@H]1[C@@H](OC(N)=O)[C@@H](O)[C@H](Oc2ccc3c(O)c(NC(=O)c4ccc(O)c(CC=C(C)C)c4)c(=O)oc3c2C)OC1(C)C`: the result in test [1], in test [2] and in test [3] was inactive.
As for `Clc1ccc(C(c2ccccc2Cl)C(Cl)Cl)cc1` (stereo not drawn), the outcome in test [1], in test [2] and in test [3] was inactive.
